Entries after “also recorded” stand apart in the source; their conditions may differ.
Legend:
Mut6 [1] = test: Cytotox testing (CellTiter-Glo ATP assay) in Mut6 cells; assay type: cell-based, mouse
How it was run: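 Mouse glioblastoma Mut6 neural stem-like cells were grown in EGF/bFGF/N2/B27 medium and plated at 2,000 cells/well on poly-lysine/laminin. About 3 h later they were treated with compound (5 μM final in the stated case) for 4 days. Viability was read as CellTiter-Glo luminescence in quadruplicate, with EC50s fitted.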

Mut6 [2] = test: Change in ATP levels in Mut6 cells; assay type: cell-based, mouse; details: Mut6, 2-6 hr
Procedure: Mut6 tumor cells or MEFs were plated into 96-well plates. One day later, Oligomyin (2 μM), Rotenone (200 nM), or 12M11 (1 μM) were added into each well and then ATP levels were measured by Cell-Titer Glo (Promega) after 2 hr, 4 hr, or 6 hr incubation. Each data is mean of six replicates with ± standard deviation.

[3] = system: cancer cell lines (HeLa, DAOY, MCF7, 435 and HCC38 cells); test: CellTiter-Glo cell viability in cancer cell lines; assay type: cell-based, human; details: significant proportion of cell lines tested, excluding DAOY and MEF
Procedure: The activity of compound 12M11 was tested against a variety of cancer cell lines (see FIG. 2A), including those are routinely used in the literature such as HeLa, DAOY, MCF7, 435 and HCC38 cells. […] Just as for MEF cells, without wishing to be bound by any theory, it is believed that the resistance of DAOY cells to the OxyPhos inhibitor 12M11 can be attributed to their higher ATP levels per cell (FIG. 13B) combined with lower intrinsic OxyPhos activity as assessed by TMRE staining (FIG. 13C).

Hepatocyte half-life = assay type: in vitro ADME; details: hepatocytes; in vitro; read-out: hepatocyte T1/2
MEF = test: OCR and ECAR measurement (Seahorse) in MEF; assay type: cell-based, mouse
Procedure: Oxygen consumption rate (OCR) and extracellular acidification rate (ECAR) were measured by Seahorse Bioscience instrument (XF24) with 80-90% confluent cells, according to the manufacturer's protocol. Briefly, cells were equilibrated for 1 hr at 37° C. incubator lacking CO2. Oxygen concentration and pH in media were measured during sequential treatment with 12M11, Oligomycin (1 μM), FCCP (1 μM), and Rotenone (200 nM). A minimum of three wells were utilized per condition to calculate OCR and ECAR.

astrocytes = test: Cytotox testing (CellTiter-Glo) in astrocytes; assay type: cell-based
Procedure: Mut6 tumor cells were cultured in DMEM/F12 media supplemented by EGF (10 ng/mL), basic FGF (10 ng/mL), heparin (4 ug/mL), glucose (total 21 mM), NaHCO3 (113 μg/mL), Hepes (119 μg/mL), glutamine (2 mM), sodium pyruvate (1 mM), N2 supplement (ThermoFisher Gibco 17502-048, 100×, at 100-fold dilution), B27 supplement (ThermoFisher Gibco 12587-010, 50×, at 100-fold dilution), and penicillin/streptomycin (ThermoFisher, final 1%). Cells were maintained in Ultra-low attachment plate (Corning) as sphere-forming cells. For ATP assays and protein/RNA isolation, cells were plated into 96-well plates or 6-well plated that were coated with poly-lysine (Sigma P6407, 10 μg/mL in PBS, 4 hr at 37° C.) and laminin (ThermoFisher 23017015, ˜5 mg/L in PBS, overnight at 37° C.). MEFs and Astrocytes were cultured in DMEM supplemented with 10% FBS and 1% Penicillin/Streptomycin.
2,000 cells were plated into each well of 96-well plates. About 3 hours later, cells were treated by 12M11, at 800-fold dilution (4 mM stock was diluted into 5 μM final concentration). Cells were further incubated for 4 days. CellTiter-Glo assay (Promega) was performed according to manufacturer's instructions, by adding 20 μL of reagent into each well. Luminescence signal was detected by the PolarStar plate reader (BMG Labtech). Experiments were performed in quadruplicate, and results are presented with mean average −/+ standard deviation. EC505 were calculated by GraphPad Prism6 software.

ATF4 = ATF4 western blot in Mut6 cells; assay type: cell-based, mouse
Procedure: Mut6 tumor cells and MEFs were treated by DMSO or 1 μM 12M11 for the indicated times. Cell lysate was prepared by RIPA buffer with phosphatase inhibitor (Thermo) and protease inhibitor (Roche). Antibodies are purchased from Santa Cruz (ATF4), Cell Signaling (pS6, S6, AMPK, and pAMPK), and Millipore (Gapdh).

[4] = system: mitochondrial membrane potential; test: TMRE mitochondrial membrane potential staining in Mut6 cells; assay type: cell-based, mouse; details: within 30 min
Procedure: TMRE mitochondrial membrane potential assay kit was purchased from Abcam (113852) and the assay was performed according to the manufacturer's protocol. Briefly, cells were pre-incubated with 1 μM 12M11 (10 min or 18 hrs) or 100 nM FCCP (10 min) and incubated for additional 20 min with 200 nM TMRE before pictures were taken.

EC50 [3]: mid nanomolar to low micromolar range | half-life (Hepatocyte half-life): 257 min
Compound: CCc1n(CC(=O)O[C@@H]2C[C@H](C)CC[C@H]2C(C)C)c2ccccc2[n+]1C.[Cl-] [Compound 12M11]
activity against Mut6 cells (Mut6 [1]; CellTiter-Glo): specific nanomolar activity; also recorded: specific toxicity | EC50 (Mut6 [1]; Mus musculus, Mut6 cells, FIG. 1, read-out: potency): ~100 nM | cell death on Mut6 cells (Mut6 [1]; after six hours of exposure): irrevocable cell death | ATP levels (% change from basal) (Mut6 [2]): decrease significantly | extracellular acidification (MEF): do not increase acidification significantly | oxygen consumption rate (OCR) (MEF): decrease | activity against astrocytes (astrocytes): no to minimal effect; also recorded: no activity; also recorded: uniquely resistant | ATF4 protein level (ATF4): activation | oxidative phosphorylation / mitochondrial membrane potential by TMRE staining [4]: impairs oxidative phosphorylation

— patent US20180354909A1, “SUBSTITUTED BENZIMIDAZOLIUM, PYRIDO-IMIDAZOLIUM, OR PYRAZINO-IMIDAZOLIUM COMPOUNDS AS CHEMOTHERAPEUTICS” (The Board of Regents of the University of Texas System, priority 2015, published 2018)
